One assay addresses T1, IKKε (Homo sapiens, UniProt Q14164).
T1 construct: TBK1 and IKKε were expressed and purified as full length recombinant proteins; made in house
T1 sequence (Q14164 1-716): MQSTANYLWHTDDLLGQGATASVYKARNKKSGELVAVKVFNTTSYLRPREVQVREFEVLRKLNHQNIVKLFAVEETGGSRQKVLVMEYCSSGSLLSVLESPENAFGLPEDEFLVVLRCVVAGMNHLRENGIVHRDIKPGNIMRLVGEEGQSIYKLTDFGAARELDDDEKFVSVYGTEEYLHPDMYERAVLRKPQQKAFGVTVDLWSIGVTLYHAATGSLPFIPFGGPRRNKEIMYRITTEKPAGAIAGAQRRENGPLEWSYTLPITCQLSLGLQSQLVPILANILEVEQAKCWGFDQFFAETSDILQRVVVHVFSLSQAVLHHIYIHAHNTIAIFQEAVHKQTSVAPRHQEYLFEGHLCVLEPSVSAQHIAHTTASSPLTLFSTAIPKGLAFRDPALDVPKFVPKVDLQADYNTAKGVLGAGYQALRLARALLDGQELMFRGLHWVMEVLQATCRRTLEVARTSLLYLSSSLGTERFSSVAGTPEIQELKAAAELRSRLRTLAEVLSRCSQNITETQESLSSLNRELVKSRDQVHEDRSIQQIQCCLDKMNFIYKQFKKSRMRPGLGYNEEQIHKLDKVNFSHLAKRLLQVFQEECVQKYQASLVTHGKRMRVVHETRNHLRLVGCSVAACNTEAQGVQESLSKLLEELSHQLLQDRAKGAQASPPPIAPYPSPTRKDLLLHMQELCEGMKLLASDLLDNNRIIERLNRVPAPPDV
Description: TR-FRET enzymatic activity assay, IKKε. Further: full length recombinant IKKε at 0.3 nM. As to conditions: read-out: IKKϵ IC50. The assay is classed as biochemical. The protocol:
(§1) Biological Assay for TBK1 and IKKε:
Enzymatic activity of IKKε and TBK1 was measured using a homogeneous time resolved fluorescence resonance energy transfer (TR-FRET) assay that monitors enzyme dependent phosphorylation of a biotinylated serine/threonine peptide substrate. […] TBK1 and IKKε were expressed and purified as full length recombinant proteins. Detection reagents for the assay were purchased from Cisbio. […] After an assay reaction time of 240 minutes at 25° C., reactions were terminated with EDTA.
(§2) Amount of phosphorylated peptide was determined by the addition of 125 nM streptavidin XL665 and europium cryptate labeled anti-phospho monoclonal antibody and the resulting TR-FRET signal was recorded on an Envision plate reader (Ex: 340 nm; Em: 615/665 nm; 100 μs delay and 200 μs read window). Data was normalized based on a positive (1 μM Staurosporine) and negative (DMSO) controls and IC50 values calculated from the fit of the dose-response curves to a four-parameter equation. All IC50 values represent geometric mean values of a minimum of four determinations.
In general terms: Time-resolved FRET reads energy transfer from a long-lived donor to a nearby acceptor.

A further assay deals with T2, TBK1 (Homo sapiens, UniProt Q9UHD2).
T2 construct: TBK1 and IKKε were expressed and purified as full length recombinant proteins; made in house
T2 sequence (Q9UHD2 1-729): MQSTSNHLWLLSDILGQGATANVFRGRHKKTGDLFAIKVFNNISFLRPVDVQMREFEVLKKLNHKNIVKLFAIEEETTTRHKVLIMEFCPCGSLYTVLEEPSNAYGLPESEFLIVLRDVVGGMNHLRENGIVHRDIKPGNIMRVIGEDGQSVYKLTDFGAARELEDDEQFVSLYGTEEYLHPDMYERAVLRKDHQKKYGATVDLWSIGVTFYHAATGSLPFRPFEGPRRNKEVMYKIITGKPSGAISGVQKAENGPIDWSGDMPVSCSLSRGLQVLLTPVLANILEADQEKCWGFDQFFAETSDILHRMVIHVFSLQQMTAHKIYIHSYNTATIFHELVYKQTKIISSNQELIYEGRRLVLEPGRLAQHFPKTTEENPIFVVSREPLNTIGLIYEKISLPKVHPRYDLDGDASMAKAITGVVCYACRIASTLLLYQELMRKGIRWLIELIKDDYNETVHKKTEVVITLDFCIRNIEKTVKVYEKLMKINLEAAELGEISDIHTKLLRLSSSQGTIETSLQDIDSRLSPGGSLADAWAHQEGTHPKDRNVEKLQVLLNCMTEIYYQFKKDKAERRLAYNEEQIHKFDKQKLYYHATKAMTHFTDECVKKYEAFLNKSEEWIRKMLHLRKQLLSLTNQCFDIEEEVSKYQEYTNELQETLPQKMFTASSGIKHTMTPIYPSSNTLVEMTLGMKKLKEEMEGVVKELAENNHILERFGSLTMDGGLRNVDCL
Briefly: TR-FRET enzymatic activity assay, TBK1. Further: full length recombinant TBK1 at 2.5 nM. Type of assay: biochemical. The protocol: as §1
Enzymatic activity of IKKε and TBK1 was measured using a homogeneous time resolved fluorescence resonance energy transfer (TR-FRET) assay that monitors enzyme dependent phosphorylation of a biotinylated serine/threonine peptide substrate. An increase in the amount of phosphorylated peptide results in an increase in TR-FRET signal. TBK1 and IKKε were expressed and purified as full length recombinant proteins. Detection reagents for the assay were purchased from Cisbio. […] After an assay reaction time of 240 minutes at 25° C., reactions were terminated with EDTA.
as §2, with “determinations. These assays generally produced results within 3-fold of the reported mean.” for “determinations.”

Structures are written as SMILES. pIC50: −log10 of the molar value.

The source of these data is patent US10316049B2, “Tank-binding kinase inhibitor compounds” (Gilead Sciences, Inc., priority 2015, dated 2019).

Broadly, the pIC50 is the negative decadic logarithm of the IC50, by convention in mol/L. Turning to `Cn1cc(C(=O)N2CC[C@H](Oc3ccc(-c4cc(NC(=O)C5CC5)ncn4)cc3C#N)[C@H](F)C2)nn1` [Example 27, N-(6-(3-cyano-4-(((3R,4S)-3-fluoro-1-(1-methyl-1H-1,2,3-triazole-4-carbonyl)piperidin-4-yl)oxy)phenyl)pyrimidin-4-yl)cyclopropanecarboxamide], the figures for the negative-log IC50 (pIC50) at IKKε and against TBK1 were 7.53 and 7.74, respectively.
On the same counts, the results for `N#Cc1cc(-c2cc(NC(=O)C3CC3)ncn2)ccc1O[C@H]1CCN(C=O)C[C@H]1F` [Example 29, N-(6-(3-cyano-4-(((3R,4S)-3-fluoro-1-formylpiperidin-4-yl)oxy)phenyl)pyrimidin-4-yl)cyclopropanecarboxamide] are 6.89 and 7.33.
For the molecule `CC1(C)C[C@@H]1C(=O)Nc1cc(-c2ccc(O[C@H]3CCN(C(=O)CO)C[C@H]3F)c(C#N)c2)ccn1` [Example 69, (S)—N-(4-(3-Cyano-4-(((3R,4S)-3-fluoro-1-(2-hydroxyacetyl)piperidin-4-yl)oxy)phenyl)pyridin-2-yl)-2,2-dimethylcyclopropane-1-carboxamide], the values for the pIC50 on IKKε and against TBK1 were 6.88 and 7.36, respectively.
Turning to `N#CCC(=O)N1CC[C@H](Oc2ccc(-c3ccnc(NC(=O)C4CC4)c3)cc2C#N)[C@H](F)C1` [Example 12, N-(4-(3-cyano-4-(((3R,4S)-1-(2-cyanoacetyl)-3-fluoropiperidin-4-yl)oxy)phenyl)pyridin-2-yl)cyclopropanecarboxamide], the pIC50 on IKKε is 6.92; at TBK1 it was 7.43.
On to `N#Cc1cc(-c2ccnc(NC(=O)C3CC3)c2)ccc1OC1CCOCC1` [Example 2, N-(4-(3-cyano-4-((tetrahydro-2H-pyran-4-yl)oxy)phenyl)pyridin-2-yl)cyclopropanecarboxamide], for which the negative logarithm of the IC50 (pIC50) at IKKε was 6.94; at TBK1, 7.55.
On the same counts, the results for `N#Cc1cc(-c2ccnc(NC(=O)C3CC3)c2)ccc1N1CCCC1` [Example 5, N-(4-(3-cyano-4-(pyrrolidin-1-yl)phenyl)pyridin-2-yl)cyclopropanecarboxamide] are 7.17 and 7.86.
Turning to `N#Cc1cc(-c2ccnc(NC(=O)[C@@H]3C[C@H]3c3cccnc3)c2)ccc1O[C@H]1CCN(C(=O)CO)CC1(F)F` [Example 141, (1R,2R)—N-(4-(3-cyano-4-(((S)-3,3-difluoro-1-(2-hydroxyacetyl)piperidin-4-yl)oxy)phenyl)pyridin-2-yl)-2-(pyridin-3-yl)cyclopropane-1-carboxamide], the pIC50 was 7.95 on IKKε and 7.76 on TBK1.
As to `N#Cc1cc(-c2ccnc(NC(=O)[C@H]3C[C@@H]3c3cccnc3)c2)ccc1O[C@H]1CCN(C(=O)CO)C[C@H]1F` [Example 136, (1S,2S)—N-(4-(3-cyano-4-(((3R,4S)-3-fluoro-1-(2-hydroxyacetyl)piperidin-4-yl)oxy)phenyl)pyridin-2-yl)-2-(pyridin-3-yl)cyclopropane-1-carboxamide], the pIC50 at IKKε is 7.98; against TBK1 it was 8.46.
With `N#Cc1cc(-c2ccnc(NC(=O)C3C[C@@H]3F)c2)ccc1O[C@H]1CCN(C(=O)CO)C[C@H]1F` (stereo partly drawn) [Example 57, (1,2-trans)-N-(4-(3-cyano-4-(((3R,4S)-3-fluoro-1-(2-hydroxyacetyl)piperidin-4-yl)oxy)phenyl)pyridin-2-yl)-2-fluorocyclopropane-1-carboxamide], the pIC50 was 7.58 at IKKε and 7.77 at TBK1.
Turning to `N#Cc1cc(-c2ccnc(NC(=O)[C@H]3C[C@H]3F)c2)ccc1O[C@H]1CCN(C(=O)CO)C[C@H]1F` [Example 59, (1R,2R)—N-(4-(3-cyano-4-(((3R,4S)-3-fluoro-1-(2-hydroxyacetyl)piperidin-4-yl)oxy)phenyl)pyridin-2-yl)-2-fluorocyclopropanecarboxamide], the pIC50 is 7.40 on IKKε and 7.47 at TBK1.
The like results for `N#Cc1cc(-c2ccnc(NC(=O)[C@@H]3C[C@H]3C3OCCO3)c2)ccc1OC1CCOCC1` (relative stereo) [Example 44, (1,2-trans)-N-(4-(3-cyano-4-((tetrahydro-2H-pyran-4-yl)oxy)phenyl)pyridin-2-yl)-2-(1,3-dioxolan-2-yl)cyclopropane-1-carboxamide] were, in that order, 6.72 and 7.48.
The like results for `N#Cc1cc(-c2ccnc(NC(=O)C3CC3)c2)ccc1O[C@H]1CCN(C(=O)[C@@H]2CCC(=O)N2)CC1(F)F` [Example 14, N-(4-(3-cyano-4-(((S)-3,3-difluoro-1-((S)-5-oxopyrrolidine-2-carbonyl)piperidin-4-yl)oxy)phenyl)pyridin-2-yl)cyclopropanecarboxamide] were, in that order, 7.73 and 8.26.
The like results for `N#Cc1cc(-c2cc(NC(=O)C3CC3)ncn2)ccc1OC1CCN(C(=O)CO)CC1` [Example 23, N-(6-(3-cyano-4-((1-(2-hydroxyacetyl)piperidin-4-yl)oxy)phenyl)pyrimidin-4-yl)cyclopropanecarboxamide] were, in that order, 6.80 and 7.18.
As for `N#Cc1cc(-c2ccnc(NC(=O)C3C4CC3C4C(N)=O)c2)ccc1OC1CCOCC1` (stereo not shown) [Example 56, N-(4-(3-cyano-4-((tetrahydro-2H-pyran-4-yl)oxy)phenyl)pyridin-2-yl)bicyclo[1.1.1]pentane-2,4-dicarboxamide], the pIC50 was 6.35 at IKKε and less than 6.00 against TBK1.
For `N#Cc1cc(-c2ccnc(NC(=O)[C@@H]3C[C@@H]3C(=O)O)c2)ccc1O[C@H]1CCN(C(=O)CO)C[C@H]1F` [Example 73, (1,2-cis)-2-((4-(3-cyano-4-(((3R,4S)-3-fluoro-1-(2-hydroxyacetyl)piperidin-4-yl)oxy)phenyl)pyridin-2-yl)carbamoyl)cyclopropane-1-carboxylic acid], the pIC50 is less than 6.00 on IKKε and 6.13 against TBK1.
For `CC(Oc1ccc(-c2cc(NC(=O)C3CC3)ncn2)cc1C#N)C(F)(F)F` (stereo not shown) [Example 106, N-(6-(3-cyano-4-((1,1,1-trifluoropropan-2-yl)oxy)phenyl)pyrimidin-4-yl)cyclopropanecarboxamide], the negative logarithm of the IC50 (pIC50) on IKKε is less than 6.00; on TBK1 it was 6.52.
On to `N#Cc1cc(-c2ccnc(NC(=O)[C@H]3C[C@@H]3[N+](=O)[O-])c2)ccc1OC1CCOCC1` (relative stereo) [Example 86, (1,2 trans)-N-(4-(3-cyano-4-((tetrahydro-2H-pyran-4-yl)oxy)phenyl)pyridin-2-yl)-2-nitrocyclopropane-1-carboxamide], for which the pIC50 at IKKε is 6.50; on TBK1, 6.28.
